# Values of other authors in patent publication US20240377385A1, “METHODS AND COMPOSITIONS OF MATTER FOR TREATING CANCER AND PREDICTING RESPONSE TO THERAPY” (ICCA INC., priority 2023, published 2024).
# How the values were obtained:
# HUVEC = conditions: in vitro; cited from earlier work
# [1] = test system: hypoxia inducible factor (HIF)-1; conditions: cited from earlier work
# [2] = test system: human xenografted glioma, ovarian, and neuroblastoma cells; conditions: cited from earlier work
# neovascularization = conditions: cited from earlier work
# [3] = test system: PAIII androgen-independent syngeneic prostate cancer cell line; conditions: daily intraperitoneal administration for 30 days, evaluation at day 40; cited from earlier work
# [4] = test system: battery of tumor cell lines; conditions: in vitro; cited from earlier work
# T cell and B cell = conditions: high dose; in vitro; cited from earlier work
# dendritic cells = conditions: cited from earlier work
# S-180 sarcoma = conditions: parenteral administration; cited from earlier work
# vascular cord formation = conditions: in vivo administration; cited from earlier work
# NK = conditions: high dose; cited from earlier work
# [5] = test system: monocytes derived from human peripheral blood; conditions: 12 hour exposure; cited from earlier work
SMILES,HUVEC proliferation (HUVEC),activation of the hypoxia inducible factor (HIF)-1 [1],in vivo inhibition of xenografted cells [2],neovascularization (neovascularization),pulmonary and lymphatic metastasis [3],tumor growth [3],"cytotoxicity of Docetaxel, Epirubicin, Irinotecan and 5-FU [4]",T cell and B cell proliferative responses as well as IL-2 secretion (T cell and B cell),T cell activating ability of dendritic cells (dendritic cells),"angiogenesis and the pro-angiogenic factors bFGF, VEGF, and MMP-2 (S-180 sarcoma)",tumor growth (S-180 sarcoma),vascular cord formation (vascular cord formation),NK cytotoxic activity (NK),FcgammaR-mediated cytokine production and antibody-dependent cellular cytotoxicity by monocytes [5]
"O=C1O[C@H]([C@@H](O)CO)C(O)=C1O [AA, ascorbic acid]",inhibits,suppresses activation,successful in vivo inhibition,suppressing neovascularization,reduction,significant inhibition,Enhancement,inhibits,inhibit,suppression,reduced tumor growth,suppressed vascular cord formation,inhibits,–
"CCOCc1nc2c(N)nc3ccccc3c2n1CC(C)(C)O [Group R-848, resiquimod]",–,–,–,–,–,–,–,–,–,–,–,–,–,increased
